{"source": "patent US20260234173A1", "about": "“STRUCTURED MOLECULAR VECTORS FOR ANTI-INFLAMMATORY COMPOUNDS AND USES THEREOF” (Universite Claude Bernard Lyon 1, priority 2019, published 2026)", "key": {"[1]": {"tested_on": "LPS-induced neuroinflammation (hippocampus and neocortex)", "experiment": "LPS-induced neuroinflammation in vivo in rats (RT-qPCR, Neuroinflammation Index)", "design": "species or system rat", "conditions": "6 h post-LPS"}, "[2]": {"tested_on": "Pilo-SE-induced inflammation in the hippocampus", "experiment": "Resolution of inflammation in hippocampus following pilocarpine-induced status epilepticus (Pilo-SE)", "assay_type": "in vivo, rat", "conditions": "2 mg/kg i.p. after 2 h of SE, hippocampus 9 h post-SE", "protocol": "Male Sprague-Dawley rats (Envigo, The Netherlands) were subjected to Pilo-SE at 42 days of age (185 g). SE was triggered by pilocarpine hydrochlorate (350 mg/kg, i.p.), 30 min after the administration of scopolamine methylnitrate (1 mg/kg, s.c.), used to reduce peripheral side effects of pilocarpine. After 2 h of continuous SE, rats were administered with diazepam (10 mg/kg, i.p.) to stop SE, and then immediately treated with SYN (2 mg/kg, i.p.), SYN-Pn (2 mg/kg, i.p.) in 300 μL of NaCl. Non-treated rats subjected to Pilo-SE were injected with 300 μL of NaCl (i.p.) instead of SYN or SYN-Pn. All rats received a second administration of diazepam (5 mg/kg, s.c.), 1 h after the first one, and sacrificed 9 h post-SE. The brains were collected, the hippocampus microdissected on ice, the RNA extracted and RT-qPCR performed as described above using the primer pairs shown in Table 1. The time at which rats were sacrificed was chosen based on our preliminary experiments that allowed us to determine that the peak of brain inflammation was observed 7-12 hours after the onset of SE."}, "[3]": {"tested_on": "CA1 pyramidal neurons in hippocampal slices from rats subjected to Pilo-SE", "experiment": "Hippocampal LTP in slices from Pilo-SE rats, compound perfused in the bath (ex vivo)", "assay_type": "cell-based, rat", "conditions": "slices 1-2 weeks post Pilo-SE", "protocol": "In this experiment we used male Sprague-Dawley rats (ENVIGO, Netherlands). Pups were received at 14 day-old (postnatal day 14 (P14)) with their foster mother, and were maintained in groups of 10 in plastic cages (405 mm×255 mm×197 mm) with free access to food and water. All animal procedures are in accordance with the guidelines of the Animal Care and Use Committee of the University Claude Bernard Lyon 1.\nAll injected solutions were prepared in sterile saline (0.9% w/v). At weaning (postnatal day 20 (P20)), Sprague-Dawley male rat pups were first injected i.p. with lithium chloride (127 mg/Kg; Sigma-Aldrich), to decrease the dose of pilocarpine needed to trigger Status Epilepticus (SE). Scopolamine methylnitrate (1 mg/Kg; Sigma-Aldrich) was injected s.c. 18 h later, to alleviate peripheral cholinergic adverse side effects. Pilocarpine hydrochloride (25 mg/Kg; Sigma-Aldrich) was injected i.p. 30 min later, to induce SE. […] The rats were placed on a heated pad, under continuous observation, until they recovered from sedation. Following recovery, the rats were returned to the nursing mother until P23. Control rats only received saline injections. All rats were then housed in groups of 10 and weighed daily, during the 5 following days, to control for food intake, and then twice weekly until the end of experiment (three weeks post SE).\nAt P28-38, Sprague-Dawley rats were anesthetized with isoflurane, the forebrain was removed and placed in ice cold standard artificial cerebrospinal fluid (ACSF), consisting of (in mM): 124 NaCl, 5 KCl, 1.25 Na2HPO4, 2 MgSO4, 2 CaCl2), 26 NaHCO3, supplemented with 10 D-glucose, and bubbled with 95% O2 and 5% CO2. Hippocampal transverse slices were cut into 350 μm thick sections, using a vibratome (Leica VT1000S), and incubated in ACSF at room temperature for at least 1 h, before the transfer to the recording chamber. The ACSF used for perfusion was supplemented with picrotoxin (100 μM; Sigma-Aldrich), to block GABA-A receptors and therefore to facilitate the induction of NMDA receptors-dependent Long-Term Potentiation (LTP). CA1 pyramidal cells were visualized with a Zeiss Axioskop 2, equipped with a X40 objective, using infrared video microscopy and differential interference contrast optics. Whole-cell recordings from pyramidal neurons in the CA1 layer were obtained with patch electrodes, which were filled with a solution containing (in mM): 120 potassium gluconate, 20 KCl, 0.2 EGTA, 2 MgCl2, 10 HEPES, 4 Na2ATP, 0.3 Tris-GTP and 14 mM phosphocreatine (pH 7.3, adjusted with KOH). Drugs were applied in the bath of the hippocampal slices. Electrode resistances ranged from 3-5 MΩ. Series resistance was continually monitored, and experiments were discarded if it changed by >20%.\nCapillary glass pipettes filled with ACSF and connected to an Iso-Flex stimulus isolation unit (A.M.P.I.) were placed in stratum radiatum, to evoke excitatory postsynaptic potentials (EPSPs) in CA1 pyramidal neurons. Cells were held at −70 mV to record EPSPs, and the stimulation strength was set to evoke EPSPs between 5-8 mV. LTP was induced by the theta burst pairing (TBP) protocol, which consisted of EPSPs paired with single back-propagating action potentials (b-APs), timed so that the b-AP (~15 ms delay) occurred at the peak of the EPSPs, as measured in the soma. A single burst contained five pairs delivered at 100 Hz and ten bursts were delivered at 5 Hz per sweep. Three sweeps were delivered at 10 s intervals for a total of 30 bursts (150 b-AP-EPSP pairs). […]"}, "[4]": {"experiment": "Recovery of weight loss in rats after status epilepticus", "assay_type": "in vivo, rat", "conditions": "10 mg/Kg i.p. every day for 7 days after Pilo-SE", "protocol": "Rats were subjected to pilocarpine-induced status epilepticus at day 0) and were administered (10 mg/Kg, i.p) Synaptamide phosphonate (SynPn) every day for 7 days. The weight of animals was daily measured. Results are described in FIG. 20. Results are expressed as the percentage of weight of animals (10-15 animals/group) at day 0. Statistical differences between Controls/SE+NaCl (*: p<0.05, ***: p<0.001) and between SE+NaCl/SE+SynPn (#: p<0.05)."}}, "data": [{"compound": "CCC=CCC=CCC=CCC=CCC=CCC=CCCC(=O)NCCP(=O)(O)O", "note": "[synaptamide phosphonate]", "values": [{"measurement": "LPS-mediated induction of transcripts encoding neuroinflammatory markers", "setting": "[1]; 2 mg/Kg synaptamide equivalent i.p. one minute after LPS 1 mg/Kg, 21-day-old rats", "result": "partially prevent"}, {"measurement": "reduction of the Neuroinflammatory Index measured both in the hippocampus and the neocortex", "setting": "[1]; 2 mg/Kg synaptamide equivalent i.p. one minute after LPS", "result": "~ 70%"}, {"measurement": "TNFα-mRNA induction in response to Pilo-SE", "setting": "[2]", "result": "significant effect"}, {"measurement": "index integrating IL1β and TNFα: peak of the inflammatory response following Pilo-SE", "setting": "[2]", "result": "improved effect"}, {"measurement": "induction of IL1β mRNA in response to Pilo-SE", "setting": "[2]; 42-day-old rats", "result": "reduced"}, {"measurement": "LTP magnitude (EPSP amplitude, % of baseline)", "setting": "[3]; bath application 100 nM", "result": "132.2±5.01", "unit": "%"}, {"measurement": "LTP magnitude (EPSP amplitude, % of baseline)", "setting": "[3]; bath application 400 nM", "result": "159.9±10.7", "unit": "%"}, {"measurement": "recovery of weight loss after SE", "setting": "[4]", "result": "facilitates the recovery of weight loss"}]}]}
